Assay results from publication PMC5933747 (PLoS ONE, 2018).
Like-named read-outs stand apart in the source and are kept apart here.

Tests used:
Assay type in all cases: cell-based
human NaV1.4 = human NaV1.4 (Homo sapiens, UniProt P35499); assay: IonWorks Quattro (IWQ) electrophysiology, human NaV1.4
human NaV1.5 = human NaV1.5 (Homo sapiens, UniProt Q14524); assay: IonWorks Quattro (IWQ) electrophysiology, human NaV1.5
human NaV1.7 = human NaV1.7 (Homo sapiens, UniProt Q15858); assay: IonWorks Quattro (IWQ) electrophysiology, human NaV1.7
[1] = read-out: Glu mutant IWQ IC50 NaV1.4
[2] = read-out: Glu mutant IWQ IC50 NaV1.5
[3] = read-out: Glu mutant IWQ IC50 NaV1.7
[4] = read-out: Ala mutant IWQ IC50 NaV1.4
[5] = read-out: Ala mutant IWQ IC50 NaV1.5
[6] = read-out: Ala mutant IWQ IC50 NaV1.7

Sequence of human NaV1.4 (P35499 whole entry): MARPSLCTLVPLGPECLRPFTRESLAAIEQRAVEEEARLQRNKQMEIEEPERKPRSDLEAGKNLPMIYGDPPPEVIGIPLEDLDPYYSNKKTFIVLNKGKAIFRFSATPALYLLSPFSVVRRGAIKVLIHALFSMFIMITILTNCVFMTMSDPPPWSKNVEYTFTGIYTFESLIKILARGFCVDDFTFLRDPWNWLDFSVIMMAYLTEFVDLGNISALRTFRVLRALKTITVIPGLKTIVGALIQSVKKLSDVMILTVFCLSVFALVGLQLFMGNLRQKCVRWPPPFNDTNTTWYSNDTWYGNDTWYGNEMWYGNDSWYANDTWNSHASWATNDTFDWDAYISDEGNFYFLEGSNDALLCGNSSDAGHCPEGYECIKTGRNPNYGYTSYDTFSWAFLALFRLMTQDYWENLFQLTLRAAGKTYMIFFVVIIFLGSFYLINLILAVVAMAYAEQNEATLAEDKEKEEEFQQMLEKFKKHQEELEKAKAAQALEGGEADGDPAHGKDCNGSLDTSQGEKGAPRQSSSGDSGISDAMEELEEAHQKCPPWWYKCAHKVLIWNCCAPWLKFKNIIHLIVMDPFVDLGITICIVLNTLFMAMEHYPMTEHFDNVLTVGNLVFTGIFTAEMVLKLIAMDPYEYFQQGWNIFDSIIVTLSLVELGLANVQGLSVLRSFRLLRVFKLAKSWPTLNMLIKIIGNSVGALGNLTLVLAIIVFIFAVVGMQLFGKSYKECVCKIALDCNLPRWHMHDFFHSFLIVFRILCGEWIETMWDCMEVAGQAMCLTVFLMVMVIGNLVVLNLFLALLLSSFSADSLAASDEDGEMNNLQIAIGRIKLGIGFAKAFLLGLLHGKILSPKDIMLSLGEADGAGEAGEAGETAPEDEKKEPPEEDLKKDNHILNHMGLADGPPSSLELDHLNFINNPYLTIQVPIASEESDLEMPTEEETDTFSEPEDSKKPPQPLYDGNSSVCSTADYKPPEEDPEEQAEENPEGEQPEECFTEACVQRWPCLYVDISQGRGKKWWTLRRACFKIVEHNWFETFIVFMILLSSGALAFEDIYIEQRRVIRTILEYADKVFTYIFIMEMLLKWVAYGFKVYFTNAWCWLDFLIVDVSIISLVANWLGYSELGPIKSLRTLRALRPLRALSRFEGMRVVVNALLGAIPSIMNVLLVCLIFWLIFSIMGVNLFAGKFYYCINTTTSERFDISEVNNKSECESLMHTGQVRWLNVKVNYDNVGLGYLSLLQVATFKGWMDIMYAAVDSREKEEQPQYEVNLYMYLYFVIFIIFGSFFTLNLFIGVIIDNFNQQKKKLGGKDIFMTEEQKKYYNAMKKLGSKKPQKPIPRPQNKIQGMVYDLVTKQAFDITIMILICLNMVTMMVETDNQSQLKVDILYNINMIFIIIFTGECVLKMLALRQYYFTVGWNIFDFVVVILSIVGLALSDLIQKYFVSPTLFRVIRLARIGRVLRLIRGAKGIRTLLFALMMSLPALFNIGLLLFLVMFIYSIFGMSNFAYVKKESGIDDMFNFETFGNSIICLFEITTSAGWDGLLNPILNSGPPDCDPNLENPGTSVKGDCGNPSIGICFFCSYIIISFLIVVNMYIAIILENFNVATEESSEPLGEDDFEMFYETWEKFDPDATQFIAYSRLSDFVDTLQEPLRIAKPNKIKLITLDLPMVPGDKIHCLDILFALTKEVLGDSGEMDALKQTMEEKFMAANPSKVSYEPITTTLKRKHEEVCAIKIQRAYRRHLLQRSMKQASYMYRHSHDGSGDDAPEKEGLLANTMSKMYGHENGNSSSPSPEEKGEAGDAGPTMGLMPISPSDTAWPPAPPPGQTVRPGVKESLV
Sequence of human NaV1.5 (Q14524 whole entry): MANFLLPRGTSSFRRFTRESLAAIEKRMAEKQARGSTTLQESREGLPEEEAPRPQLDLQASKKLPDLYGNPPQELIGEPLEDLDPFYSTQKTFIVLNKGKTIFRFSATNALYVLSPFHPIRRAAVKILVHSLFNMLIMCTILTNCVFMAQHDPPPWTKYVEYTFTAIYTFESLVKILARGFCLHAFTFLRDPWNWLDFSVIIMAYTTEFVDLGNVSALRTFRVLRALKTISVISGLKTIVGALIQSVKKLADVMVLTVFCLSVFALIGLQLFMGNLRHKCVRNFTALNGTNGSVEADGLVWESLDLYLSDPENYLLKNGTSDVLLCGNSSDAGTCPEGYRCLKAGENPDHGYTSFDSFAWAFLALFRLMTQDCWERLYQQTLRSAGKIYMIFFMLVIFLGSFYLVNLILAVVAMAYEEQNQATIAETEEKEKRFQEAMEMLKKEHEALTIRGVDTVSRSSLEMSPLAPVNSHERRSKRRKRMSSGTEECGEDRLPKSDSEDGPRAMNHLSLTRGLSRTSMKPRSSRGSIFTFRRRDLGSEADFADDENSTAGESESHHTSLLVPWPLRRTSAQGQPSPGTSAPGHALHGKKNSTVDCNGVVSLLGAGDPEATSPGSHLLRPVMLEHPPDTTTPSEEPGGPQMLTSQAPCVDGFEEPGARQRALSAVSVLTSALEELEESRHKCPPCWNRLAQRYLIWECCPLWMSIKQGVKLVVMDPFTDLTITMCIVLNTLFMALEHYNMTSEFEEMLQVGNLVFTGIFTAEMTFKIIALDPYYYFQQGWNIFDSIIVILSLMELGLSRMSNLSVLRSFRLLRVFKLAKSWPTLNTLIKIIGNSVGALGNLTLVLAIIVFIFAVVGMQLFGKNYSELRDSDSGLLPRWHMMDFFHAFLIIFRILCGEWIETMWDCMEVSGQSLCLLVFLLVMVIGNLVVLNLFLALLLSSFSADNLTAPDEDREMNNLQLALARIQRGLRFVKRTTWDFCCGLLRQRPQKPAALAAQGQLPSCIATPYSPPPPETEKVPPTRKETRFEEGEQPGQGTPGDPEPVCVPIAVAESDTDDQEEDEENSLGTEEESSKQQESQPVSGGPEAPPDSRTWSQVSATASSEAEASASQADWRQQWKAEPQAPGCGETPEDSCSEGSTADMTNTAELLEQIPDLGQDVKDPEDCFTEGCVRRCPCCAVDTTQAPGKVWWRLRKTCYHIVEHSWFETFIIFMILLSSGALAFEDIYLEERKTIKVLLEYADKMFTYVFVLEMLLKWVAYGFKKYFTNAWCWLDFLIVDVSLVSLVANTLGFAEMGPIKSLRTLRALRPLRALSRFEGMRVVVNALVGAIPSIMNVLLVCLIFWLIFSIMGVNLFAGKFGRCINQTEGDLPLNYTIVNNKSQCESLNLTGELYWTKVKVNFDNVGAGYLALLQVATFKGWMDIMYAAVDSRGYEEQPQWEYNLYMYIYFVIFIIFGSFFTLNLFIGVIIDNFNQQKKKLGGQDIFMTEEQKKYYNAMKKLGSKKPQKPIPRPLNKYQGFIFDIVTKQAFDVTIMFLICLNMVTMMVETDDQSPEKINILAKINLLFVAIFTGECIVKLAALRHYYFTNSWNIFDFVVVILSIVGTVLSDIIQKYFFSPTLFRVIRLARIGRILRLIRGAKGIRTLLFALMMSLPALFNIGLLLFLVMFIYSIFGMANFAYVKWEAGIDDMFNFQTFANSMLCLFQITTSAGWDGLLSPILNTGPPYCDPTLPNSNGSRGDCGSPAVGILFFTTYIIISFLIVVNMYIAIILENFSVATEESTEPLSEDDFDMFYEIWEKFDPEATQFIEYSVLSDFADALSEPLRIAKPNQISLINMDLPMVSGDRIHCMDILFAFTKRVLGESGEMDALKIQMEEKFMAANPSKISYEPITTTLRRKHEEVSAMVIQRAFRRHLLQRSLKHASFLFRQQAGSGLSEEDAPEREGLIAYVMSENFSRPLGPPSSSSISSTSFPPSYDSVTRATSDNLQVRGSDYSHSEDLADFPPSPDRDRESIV

CC[C@H](C)[C@H](NC(=O)[C@@H](NC(=O)[C@H](CCCCN)NC(=O)[C@H](CCCNC(=N)N)NC(=O)[C@@H]1CSSC[C@@H]2NC(=O)[C@H](C)NC(=O)[C@H](CCCNC(=N)N)NC(=O)[C@H](CCCCN)NC(=O)[C@H](CO)NC(=O)[C@H](CC(=O)O)NC(=O)[C@@H]3CSSC[C@H](NC(=O)[C@H](CCCNC(=N)N)NC(=O)[C@H](CC(C)C)NC(=O)CNC(=O)[C@H](CCC(=O)O)NC(=O)[C@H](CSSC[C@H](NC(=O)[C@@H](N)Cc4ccc(O)cc4)C(=O)N[C@@H](CCC(N)=O)C(=O)N[C@@H](CCC(=O)O)C(=O)N[C@@H](Cc4c[nH]c5ccccc45)C(=O)N[C@@H](CCSC)C(=O)N[C@@H](Cc4c[nH]c5ccccc45)C(=O)N[C@@H]([C@@H](C)O)C(=O)N3)NC2=O)C(=O)N[C@@H](CCCCN)C(=O)N[C@@H](CC(C)C)C(=O)N[C@@H](Cc2c[nH]c3ccccc23)C(=O)N1)[C@@H](C)CC)C(N)=O [K4 Glu mutant]
IC50 (human NaV1.4; [1]): 0.967 µM
IC50 (human NaV1.5; [2]): > 10 µM
IC50 (human NaV1.7; [3]): 0.106 µM

CC[C@H](C)[C@H](NC(=O)[C@@H](NC(=O)[C@H](CCCCN)NC(=O)[C@H](CCC(=O)O)NC(=O)[C@@H]1CSSC[C@@H]2NC(=O)[C@H](C)NC(=O)[C@H](CCCNC(=N)N)NC(=O)[C@H](CCCCN)NC(=O)[C@H](CO)NC(=O)[C@H](CC(=O)O)NC(=O)[C@@H]3CSSC[C@H](NC(=O)[C@H](CCCNC(=N)N)NC(=O)[C@H](CC(C)C)NC(=O)CNC(=O)[C@H](CCC(=O)O)NC(=O)[C@H](CSSC[C@H](NC(=O)[C@@H](N)Cc4ccc(O)cc4)C(=O)N[C@@H](CCC(N)=O)C(=O)N[C@@H](CCCCN)C(=O)N[C@@H](Cc4c[nH]c5ccccc45)C(=O)N[C@@H](CCSC)C(=O)N[C@@H](Cc4c[nH]c5ccccc45)C(=O)N[C@@H]([C@@H](C)O)C(=O)N3)NC2=O)C(=O)N[C@@H](CCCCN)C(=O)N[C@@H](CC(C)C)C(=O)N[C@@H](Cc2c[nH]c3ccccc23)C(=O)N1)[C@@H](C)CC)C(N)=O [R26 Glu mutant]
IC50 (human NaV1.4; [1]): > 10 µM
IC50 (human NaV1.5; [2]): > 10 µM
IC50 (human NaV1.7; [3]): > 10 µM

CC[C@H](C)[C@H](NC(=O)[C@@H](NC(=O)[C@H](CCCCN)NC(=O)[C@H](CCCNC(=N)N)NC(=O)[C@@H]1CSSC[C@@H]2NC(=O)[C@H](C)NC(=O)[C@H](CCCNC(=N)N)NC(=O)[C@H](CCCCN)NC(=O)[C@H](CO)NC(=O)[C@H](CC(=O)O)NC(=O)[C@@H]3CSSC[C@H](NC(=O)[C@H](CCCNC(=N)N)NC(=O)[C@H](CC(C)C)NC(=O)CNC(=O)[C@H](CCC(=O)O)NC(=O)[C@H](CSSC[C@H](NC(=O)[C@@H](N)Cc4ccc(O)cc4)C(=O)N[C@@H](CCC(N)=O)C(=O)N[C@@H](CCCCN)C(=O)N[C@@H](C)C(=O)N[C@@H](CCSC)C(=O)N[C@@H](Cc4c[nH]c5ccccc45)C(=O)N[C@@H]([C@@H](C)O)C(=O)N3)NC2=O)C(=O)N[C@@H](CCCCN)C(=O)N[C@@H](CC(C)C)C(=O)N[C@@H](Cc2c[nH]c3ccccc23)C(=O)N1)[C@@H](C)CC)C(N)=O [W5 Ala mutant]
IC50 (human NaV1.4; [4]): > 10 µM
IC50 (human NaV1.5; [5]): > 10 µM
IC50 (human NaV1.7; [6]): 1.55 µM

CC[C@H](C)[C@H](NC(=O)[C@@H](NC(=O)[C@H](CCCCN)NC(=O)[C@H](CCCNC(=N)N)NC(=O)[C@@H]1CSSC[C@@H]2NC(=O)[C@H](C)NC(=O)[C@H](CCCNC(=N)N)NC(=O)[C@H](CCCCN)NC(=O)[C@H](CO)NC(=O)[C@H](CC(=O)O)NC(=O)[C@@H]3CSSC[C@H](NC(=O)[C@H](CCCNC(=N)N)NC(=O)[C@H](CC(C)C)NC(=O)CNC(=O)[C@H](CCC(=O)O)NC(=O)[C@H](CSSC[C@H](NC(=O)[C@@H](N)Cc4ccc(O)cc4)C(=O)N[C@@H](CCC(N)=O)C(=O)N[C@@H](CCCCN)C(=O)N[C@@H](Cc4c[nH]c5ccccc45)C(=O)N[C@@H](CCSC)C(=O)N[C@@H](Cc4c[nH]c5ccccc45)C(=O)N[C@@H]([C@@H](C)O)C(=O)N3)NC2=O)C(=O)N[C@@H](CCCCN)C(=O)N[C@@H](CC(C)C)C(=O)N[C@@H](CCC(=O)O)C(=O)N1)[C@@H](C)CC)C(N)=O [W24 Glu mutant]
IC50 (human NaV1.4; [1]): > 10 µM
IC50 (human NaV1.5; [2]): > 10 µM
IC50 (human NaV1.7; [3]): 9.9 µM

CC[C@H](C)[C@H](NC(=O)[C@@H](NC(=O)[C@H](CCCCN)NC(=O)[C@H](CCCNC(=N)N)NC(=O)[C@@H]1CSSC[C@@H]2NC(=O)[C@H](C)NC(=O)[C@H](CCCNC(=N)N)NC(=O)[C@H](CCCCN)NC(=O)[C@H](CO)NC(=O)[C@H](CC(=O)O)NC(=O)[C@@H]3CSSC[C@H](NC(=O)[C@H](CCCNC(=N)N)NC(=O)[C@H](CC(C)C)NC(=O)CNC(=O)[C@H](CCC(=O)O)NC(=O)[C@H](CSSC[C@H](NC(=O)[C@@H](N)Cc4ccc(O)cc4)C(=O)N[C@@H](CCC(N)=O)C(=O)N[C@@H](CCCCN)C(=O)N[C@@H](Cc4c[nH]c5ccccc45)C(=O)N[C@@H](CCC(=O)O)C(=O)N[C@@H](Cc4c[nH]c5ccccc45)C(=O)N[C@@H]([C@@H](C)O)C(=O)N3)NC2=O)C(=O)N[C@@H](CCCCN)C(=O)N[C@@H](CC(C)C)C(=O)N[C@@H](Cc2c[nH]c3ccccc23)C(=O)N1)[C@@H](C)CC)C(N)=O [M6 Glu mutant]
IC50 (human NaV1.4; [1]): > 10 µM
IC50 (human NaV1.5; [2]): > 10 µM
IC50 (human NaV1.7; [3]): > 10 µM

CC[C@H](C)[C@H](NC(=O)[C@@H](NC(=O)[C@H](CCCCN)NC(=O)[C@H](CCCNC(=N)N)NC(=O)[C@@H]1CSSC[C@@H]2NC(=O)[C@H](C)NC(=O)[C@H](CCCNC(=N)N)NC(=O)[C@H](CCCCN)NC(=O)[C@H](CO)NC(=O)[C@H](CC(=O)O)NC(=O)[C@@H]3CSSC[C@H](NC(=O)[C@H](CCCNC(=N)N)NC(=O)[C@H](CC(C)C)NC(=O)CNC(=O)[C@H](CCC(=O)O)NC(=O)[C@H](CSSC[C@H](NC(=O)[C@@H](N)Cc4ccc(O)cc4)C(=O)N[C@@H](CCC(N)=O)C(=O)N[C@@H](CCCCN)C(=O)N[C@@H](Cc4c[nH]c5ccccc45)C(=O)N[C@@H](CCSC)C(=O)N[C@@H](Cc4c[nH]c5ccccc45)C(=O)N[C@@H]([C@@H](C)O)C(=O)N3)NC2=O)C(=O)N[C@@H](CCCCN)C(=O)N[C@@H](CC(C)C)C(=O)N[C@@H](C)C(=O)N1)[C@@H](C)CC)C(N)=O [W24 Ala mutant]
IC50 (human NaV1.4; [4]): > 10 µM
IC50 (human NaV1.5; [5]): > 10 µM
IC50 (human NaV1.7; [6]): > 10 µM

CC[C@H](C)[C@H](NC(=O)[C@@H](NC(=O)[C@H](CCCCN)NC(=O)[C@H](CCCNC(=N)N)NC(=O)[C@@H]1CSSC[C@@H]2NC(=O)[C@H](C)NC(=O)[C@H](CCCNC(=N)N)NC(=O)[C@H](CCCCN)NC(=O)[C@H](CO)NC(=O)[C@H](CC(=O)O)NC(=O)[C@@H]3CSSC[C@H](NC(=O)[C@H](CCCNC(=N)N)NC(=O)[C@H](CC(C)C)NC(=O)CNC(=O)[C@H](CCC(=O)O)NC(=O)[C@H](CSSC[C@H](NC(=O)[C@@H](N)Cc4ccc(O)cc4)C(=O)N[C@@H](CCC(N)=O)C(=O)N[C@@H](CCCCN)C(=O)N[C@@H](Cc4c[nH]c5ccccc45)C(=O)N[C@@H](CCSC)C(=O)N[C@@H](Cc4c[nH]c5ccccc45)C(=O)N[C@@H]([C@@H](C)O)C(=O)N3)NC2=O)C(=O)N[C@@H](CCC(=O)O)C(=O)N[C@@H](CC(C)C)C(=O)N[C@@H](Cc2c[nH]c3ccccc23)C(=O)N1)[C@@H](C)CC)C(N)=O [K22 Glu mutant]
IC50 (human NaV1.4; [1]): > 10 µM
IC50 (human NaV1.5; [2]): > 10 µM
IC50 (human NaV1.7; [3]): 0.662 µM

CC[C@H](C)[C@H](NC(=O)[C@@H](NC(=O)[C@H](CCCCN)NC(=O)[C@H](C)NC(=O)[C@@H]1CSSC[C@@H]2NC(=O)[C@H](C)NC(=O)[C@H](CCCNC(=N)N)NC(=O)[C@H](CCCCN)NC(=O)[C@H](CO)NC(=O)[C@H](CC(=O)O)NC(=O)[C@@H]3CSSC[C@H](NC(=O)[C@H](CCCNC(=N)N)NC(=O)[C@H](CC(C)C)NC(=O)CNC(=O)[C@H](CCC(=O)O)NC(=O)[C@H](CSSC[C@H](NC(=O)[C@@H](N)Cc4ccc(O)cc4)C(=O)N[C@@H](CCC(N)=O)C(=O)N[C@@H](CCCCN)C(=O)N[C@@H](Cc4c[nH]c5ccccc45)C(=O)N[C@@H](CCSC)C(=O)N[C@@H](Cc4c[nH]c5ccccc45)C(=O)N[C@@H]([C@@H](C)O)C(=O)N3)NC2=O)C(=O)N[C@@H](CCCCN)C(=O)N[C@@H](CC(C)C)C(=O)N[C@@H](Cc2c[nH]c3ccccc23)C(=O)N1)[C@@H](C)CC)C(N)=O [R26 Ala mutant]
IC50 (human NaV1.4; [4]): > 10 µM
IC50 (human NaV1.5; [5]): > 10 µM
IC50 (human NaV1.7; [6]): 2.42 µM

CC[C@H](C)[C@H](NC(=O)[C@@H](NC(=O)[C@H](CCCCN)NC(=O)[C@H](CCCNC(=N)N)NC(=O)[C@@H]1CSSC[C@@H]2NC(=O)[C@H](C)NC(=O)[C@H](CCCNC(=N)N)NC(=O)[C@H](CCCCN)NC(=O)[C@H](CO)NC(=O)[C@H](CC(=O)O)NC(=O)[C@@H]3CSSC[C@H](NC(=O)[C@H](CCCNC(=N)N)NC(=O)[C@H](CCC(=O)O)NC(=O)CNC(=O)[C@H](CCC(=O)O)NC(=O)[C@H](CSSC[C@H](NC(=O)[C@@H](N)Cc4ccc(O)cc4)C(=O)N[C@@H](CCC(N)=O)C(=O)N[C@@H](CCCCN)C(=O)N[C@@H](Cc4c[nH]c5ccccc45)C(=O)N[C@@H](CCSC)C(=O)N[C@@H](Cc4c[nH]c5ccccc45)C(=O)N[C@@H]([C@@H](C)O)C(=O)N3)NC2=O)C(=O)N[C@@H](CCCCN)C(=O)N[C@@H](CC(C)C)C(=O)N[C@@H](Cc2c[nH]c3ccccc23)C(=O)N1)[C@@H](C)CC)C(N)=O [L19 Glu mutant]
IC50 (human NaV1.4; [1]): > 10 µM
IC50 (human NaV1.5; [2]): > 10 µM
IC50 (human NaV1.7; [3]): > 10 µM

CC[C@H](C)[C@H](NC(=O)[C@@H](NC(=O)[C@H](CCCCN)NC(=O)[C@H](CCCNC(=N)N)NC(=O)[C@@H]1CSSC[C@@H]2NC(=O)[C@H](C)NC(=O)[C@H](CCCNC(=N)N)NC(=O)[C@H](CCCCN)NC(=O)[C@H](CO)NC(=O)[C@H](CC(=O)O)NC(=O)[C@@H]3CSSC[C@H](NC(=O)[C@H](CCCNC(=N)N)NC(=O)[C@H](CC(C)C)NC(=O)CNC(=O)[C@H](CCC(=O)O)NC(=O)[C@H](CSSC[C@H](NC(=O)[C@@H](N)Cc4ccc(O)cc4)C(=O)N[C@@H](CCC(N)=O)C(=O)N[C@@H](C)C(=O)N[C@@H](Cc4c[nH]c5ccccc45)C(=O)N[C@@H](CCSC)C(=O)N[C@@H](Cc4c[nH]c5ccccc45)C(=O)N[C@@H]([C@@H](C)O)C(=O)N3)NC2=O)C(=O)N[C@@H](CCCCN)C(=O)N[C@@H](CC(C)C)C(=O)N[C@@H](Cc2c[nH]c3ccccc23)C(=O)N1)[C@@H](C)CC)C(N)=O [K4 Ala mutant]
IC50 (human NaV1.4; [4]): 3.26 µM
IC50 (human NaV1.5; [5]): > 10 µM
IC50 (human NaV1.7; [6]): 0.417 µM
